# Values of other authors as cited in article PMC11901438, “Synthesis and Evaluation of Boron-Containing Heterocyclic Compounds with Antimicrobial and Anticancer Activities” (Molecules, 2025).
# Tested on: Mycobacterium tuberculosis
# Design: method as in PMID 33410233
# Settings: earlier work of the same laboratory; cited from earlier work
row,SMILES,MIC90 (CIM90) anti-Mycobacterium tuberculosis [µM]
1,O=C(Nc1ccc(N2CCCCCC2)c(F)c1)c1ccc2no[n+]([O-])c2c1 [Compound 6],2.89
2,O=C(Nc1ccc(N2CCN(c3ccccn3)CC2)c(F)c1)c1ccc2no[n+]([O-])c2c1 [Compound 1],0.09
3,O=C(Nc1ccc(N2CCSCC2)c(F)c1)c1ccc2no[n+]([O-])c2c1 [Compound 4],0.70
4,O=C(Nc1ccc(N2CCN(c3ncccn3)CC2)c(F)c1)c1ccc2no[n+]([O-])c2c1 [Compound 2],2.22
5,O=C(Nc1ccc(N2CCN(c3ccc(F)cc3)CC2)c(F)c1)c1ccc2no[n+]([O-])c2c1 [Compound 3],3.82
6,O=C(Nc1ccc(N2CCOCC2)c(F)c1)c1ccc2no[n+]([O-])c2c1 [Compound 5],5.22
